Measured values published in patent US7973055B2, “Crystalline forms of a biphenyl compound” (Theravance, Inc., priority 2006, dated 2011).

Columns and labels:
[1] = biological target: T1, M3 muscarinic receptor subtype (hM3) (Homo sapiens, UniProt P20309); assay: Radioligand binding assay ([3H]-NMS displacement, CHO cell membranes); conditions: [3H]-NMS 1 nM, this or a similar assay
T1 construct: expressed in transfected cells
Protocol: CHO cell lines stably expressing cloned human hM1, hM2, hM3 and hM4 muscarinic receptor subtypes, respectively, were grown to near confluency in medium consisting of HAM's F-12 supplemented with 10% FBS and 250 μg/mL Geneticin. The cells were grown in a 5% CO2, 37° C. incubator and lifted with 2 mM EDTA in dPBS. Cells were collected by 5 minute centrifugation at 650×g, and cell pellets were either stored frozen at −80° C. or membranes were prepared immediately. For membrane preparation, cell pellets were resuspended in lysis buffer and homogenized with a Polytron PT-2100 tissue disrupter (Kinematica AG; 20 seconds×2 bursts). Crude membranes were centrifuged at 40,000×g for 15 minutes at 4° C. […] The protein concentration of the membrane suspension was determined by the method described in Lowry, O. et al., Journal of Biochemistry 193:265 (1951). […]
Radioligand binding assays were performed in 96-well microtiter plates in a total assay volume of 100 μL. […] Filter plates were rinsed three times with wash buffer (10 mM HEPES) to remove unbound radioactivity. […] The plates were then counted in a PerkinElmer Topcount liquid scintillation counter (PerkinElmer Inc., Wellesley, Mass.). Binding data were analyzed by nonlinear regression analysis with the GraphPad Prism Software package (GraphPad Software, Inc., San Diego, Calif.) using the one-site competition model. […]

[2] = biological target: T2, hM2 receptor (CHO-K1 cells) (Homo sapiens, UniProt P08172); assay: Blockade of agonist-mediated [35S]GTPγS binding; type: biochemical; conditions: CHO-K1 cells expressing hM2; this or a similar assay; read-out: Ki for blockade of oxotremorine-stimulated [35S]GTPγS binding
T2 construct: expressed in transfected cells; host or cells: CHO-K1 cells
T2 sequence (P08172 1-466): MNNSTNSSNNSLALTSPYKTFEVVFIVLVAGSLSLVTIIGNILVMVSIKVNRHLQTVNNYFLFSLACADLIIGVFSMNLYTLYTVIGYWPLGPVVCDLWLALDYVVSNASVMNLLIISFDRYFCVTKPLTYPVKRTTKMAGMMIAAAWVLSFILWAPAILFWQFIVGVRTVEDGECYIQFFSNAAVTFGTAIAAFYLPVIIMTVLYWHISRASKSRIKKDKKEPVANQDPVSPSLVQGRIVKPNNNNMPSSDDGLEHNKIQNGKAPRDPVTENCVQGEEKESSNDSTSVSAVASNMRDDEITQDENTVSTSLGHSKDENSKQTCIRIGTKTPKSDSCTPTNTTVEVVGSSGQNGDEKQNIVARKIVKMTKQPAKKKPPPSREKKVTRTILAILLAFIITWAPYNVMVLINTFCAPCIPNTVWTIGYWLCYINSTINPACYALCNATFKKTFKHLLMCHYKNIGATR
Protocol: In a second functional assay, the functional potency of test compounds can be determined by measuring the ability of the compounds to block oxotremorine-stimulated [^35S]GTPγS binding in CHO-K1 cells expressing the hM2 receptor.
At the time of use, frozen membranes were thawed and then diluted in assay buffer with a final target tissue concentration of 5-10 μg protein per well. The membranes were briefly homogenized using a Polytron PT-2100 tissue disrupter and then added to the assay plates. The EC90 value (effective concentration for 90% maximal response) for stimulation of [^35S]GTPγS binding by the agonist oxotremorine was determined in each experiment.
To determine the ability of a test compound to inhibit oxotremorine-stimulated [^35S]GTPγS binding, the following was added to each well of 96 well plates: 25 μL of assay buffer with [^35S]GTPγS (0.4 nM), 25 μL of oxotremorine (EC90) and GDP (3 μM), 25 μL of diluted test compound and 25 μL CHO cell membranes expressing the hM2 receptor. […] Microscint-20 scintillation liquid (50 μL) was added to each well, and each plate was sealed and radioactivity counted on a topcounter (PerkinElmer). Data were analyzed by nonlinear regression analysis with the GraphPad Prism Software package (GraphPad Software, Inc., San Diego, Calif.) using the non-linear regression, one-site competition equation. […]

T1 sequence (P20309 whole entry): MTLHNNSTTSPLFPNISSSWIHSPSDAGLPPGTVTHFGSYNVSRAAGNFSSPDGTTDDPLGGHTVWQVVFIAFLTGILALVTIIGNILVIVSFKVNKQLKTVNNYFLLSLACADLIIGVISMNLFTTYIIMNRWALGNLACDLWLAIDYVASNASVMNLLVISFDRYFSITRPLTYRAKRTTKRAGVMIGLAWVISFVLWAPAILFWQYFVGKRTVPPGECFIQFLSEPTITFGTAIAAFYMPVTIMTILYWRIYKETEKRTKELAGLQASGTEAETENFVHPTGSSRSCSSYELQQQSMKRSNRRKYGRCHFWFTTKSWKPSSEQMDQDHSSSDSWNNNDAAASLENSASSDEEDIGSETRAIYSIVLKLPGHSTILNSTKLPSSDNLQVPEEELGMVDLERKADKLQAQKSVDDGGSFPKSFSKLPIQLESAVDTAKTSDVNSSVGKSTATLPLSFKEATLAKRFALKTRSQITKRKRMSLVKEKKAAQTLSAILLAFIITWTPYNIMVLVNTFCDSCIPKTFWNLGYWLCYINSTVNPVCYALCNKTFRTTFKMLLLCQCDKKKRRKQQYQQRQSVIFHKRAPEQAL

## CN(CCN1CCC(OC(=O)Nc2ccccc2-c2ccccc2)CC1)C(=O)c1cccc(C(=O)NCCNCc2ccc(O)cc2)c1 [compound of formula I, biphenyl-2-ylcarbamic acid 1-[2-({3-[2-(4-hydroxybenzylamino)ethylcarbamoyl]benzoyl}methylamino)ethyl]piperidin-4-yl ester]
[1]
  Ki: < 5 nM
[2]
  Ki: < 10 nM
